Read-outs that look alike come from different tables or passages of the source.
What was measured:
[1] = Acute toxicity in female NMRI mice, i.v.; settings: in vivo, iv, mouse
Procedure: Acute toxicity was determined by using female mice of NMRI-Strain with an age of about 7 months and weighing 30-40 g. The administration of the test compound was i.v.

[2] = tested on: indomethacin-induced ulcers; assay: Preventive effect on formation of indomethacin-induced ulcers; format: in vivo, rat (female Sprague-Dawley); settings: for ED50: Rattus norvegicus, ip, 4 h, read-out: ED50 (ulcer prevention)
[3] = tested on: anesthetized Sprague-Dawley rats (blood pressure, pulse frequency); assay: Blood pressure and pulse frequency in anesthetized normal-weight Sprague-Dawley rats (i.v.); format: in vivo, rat (Sprague-Dawley); settings: for minimal effective dose: Rattus norvegicus, iv
Procedure: The anti-hypertensive properties of the imidazole derivatives of the present invention have been determined according to the following procedure. Sprague-Dawley rats of normal weight were first anesthetized with urethane. After this, the femoral artery was connected by way of a polyethylene tube with a blood pressure transducer. The test substance was then injected into the femoral vein and the blood pressure and the pulse frequency were registered with a recorder. The minimum doses producing a significant change were found, i.e. ± at least 20% in the case of blood pressure, and ± at least 3% in the case of pulse frequency.

[4] = Preventive effect on formation of indomethacin-induced ulcers; format: in vivo, rat (female Sprague-Dawley); settings: rat, in vivo, iv; LD50 (mouse, i.v.) / ED50 (ulcer); read-out: Therapeutic Index
[5] = tested on: rats (motility, muscle tone, catalepsia); assay: Tranquilizing activity: Irwin screen in rats; format: in vivo, rat
Procedure: (§1) The tranquilizing activity of the compounds was determined by the following methods:
(1) Irwin screen in rats (Irwin S., Psychopharmacologia 13:222, 1968)
Especially sedatory and cataleptic activity and effects on muscle tone are observed.

[6] = tested on: cattle (avoidance, muscle tone); assay: Tranquilizing or taming effect on cattle; format: in vivo; settings: 0.1 mg/kg i.m.
Procedure: as §1
(2) Tranquilizing or taming effect on cattle:
The test compounds were administered i.m. to cattle, mostly to heifers (150-200 kg).
The most suitable tranquilized state of an animal includes the ability to retain the upright position and coordination with minimal avoidance reactions to painful stimuli and handling. Thus, a combination of sedative and analgesic potency is required.

rats (blood pressure) = assay: Applicant's experiments on prior-art imidazoles: anti-hypertensive activity / blood pressure in rats; format: in vivo, rat; settings: found by our experiments
[7] = tested on: male mice on a 55° C. hot plate; assay: Hot plate test; format: in vivo, mouse (male); settings: for change in vivo at 1.5 mg/kg: 1.5 mg/kg i.p.
Procedure: (§2) The analgesic activity of the compounds of formula (I) was tested in the following manner: […]
Test compounds or saline were given i.p. to male mice. Thirty minutes thereafter, the time for which the mice remained on a 55° C. plate was recorded. The results are expressed as compared to saline.

[8] = tested on: acetic acid-induced writhing; assay: Writhing test (acetic acid); format: in vivo, rat;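 on Analgesic activity: ++ means marked effect and + means moderate effect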
Procedure: as §2
The compounds studied and saline were administered p.o. to rats. Forty-five minutes later, 1 ml of 1% acetic acid was administered i.p. The number of writhes was recorded in the following 25 minute period (Koster et al: Fed. Proc. 18:412, 1959).

[9] = tested on: carrageenan-induced oedema; assay: Inhibition of carrageenan-induced oedema; format: in vivo, rat;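 on Anti-inflammatory activity: ++ means marked effect and + means moderate effect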
Procedure: The anti-inflammatory activity of the compounds of the invention was determined by inhibition of the carrageenan induced oedema in rats by the compounds examined (Winter C. A. et al., Proc. Soc. Exp. Biol. Med. 111:544, 1962).

[10] = read-out: Blood Pressure Minimum Dose having a significant lowering effect
[11] = read-out: Pulse frequency Minimum Dose having a significant lowering effect
[12] = Mus musculus, ip, 0.5 h, read-out: increase in HP-time (%)

SMILES	LD50 [1] [mg/kg]	selectivity ratio [4]	ED50 [2] [mg/kg]	minimal effective dose [3, 10] [mg/kg]	minimal effective dose [3, 11] [mg/kg]	loss of avoidance [6]	change in vivo at 1.5 mg/kg [7, 12] [%]	other results
Cc1cccc(C)c1Cc1nc[nH]c1C [5-Methyl-4-(2',6'-dimethylbenzyl)imidazole]	27							prevention of the formation of ulcers ([2]; 0.5 mg/kg): partly prevented the formation of ulcers; prevention of the formation of ulcers ([2]; 5 mg/kg): prevented them completely; anti-hypertensive effect ([3]; tested as above): no anti-hypertensive effect was found
Clc1cccc(Cl)c1Cc1cnc[nH]1 [4-(2',6'-dichlorobenzyl)imidazole, 4-(2',6'-Dichlorobenzyl)imidazole]	48	1600	0.03	0.03 to 0.1	0.03 to 0.1			
Cc1cc(C)c(Cc2c[nH]cn2)c(C)c1 [4-(2',4',6'-trimethylbenzyl)imidazole, 4-(2',4',6'-Trimethylbenzyl)imidazole]	63	2100	0.03	0.05 to 0.2	0.03	+		catalepsia ([5]; 1.0 mg/kg): +; decrease of motility ([5]; 1.0 mg/kg): ++; loss of muscle tone [6]: +
CCc1[nH]cnc1Cc1ccccc1 [5(4)-ethyl-4(5)-benzylimidazole]								antihypertensive activity (rats (blood pressure)): no antihypertensive activity
Clc1ccccc1Cc1c[nH]cn1 [4-(2'-chlorobenzyl)imidazole, 4-(2'-Chlorobenzyl)imidazole]	65	2170	0.03			+	200	Analgesic activity ([7]; 1.5 mg/kg): +; catalepsia ([5]; 0.25 mg/kg): +; decrease of motility ([5]; 0.25 mg/kg): +
Cc1cccc(Cc2c[nH]cn2)c1 [4-(3'-methylbenzyl)imidazole, 4-(3'-Methylbenzyl)imidazole]	38	1900	0.02			+	50	Analgesic activity ([8]; 30 mg/kg): ++; W-number ([8]; 30 mg/kg p.o.): 0; Anti-inflammatory activity ([9]; 100 mg/kg p.o. in the rat): +; inhibition in vivo at 100 mg/kg ([9]; Rattus norvegicus, po, read-out: inhibition carrageenan-induced oedema (%)): 61%
CCc1ccccc1Cc1c[nH]cn1 [4-(2'-ethylbenzyl)imidazole, 4-(2'-Ethylbenzyl)imidazole]	34	6800	0.005				150	Analgesic activity ([7]; 1.5 mg/kg): +
Cc1cccc(Cc2c[nH]cn2)c1C [4-(2',3'-dimethylbenzyl)imidazole, 4-(2',3'-Dimethylbenzyl)imidazole]	35	7000	0.005	0.01 to 0.1	0.01 to 1	++		Analgesic activity ([7]; 0.6 mg/kg): +; change in vivo at 0.6 mg/kg ([7]; Mus musculus, ip, 0.5 h, 0.6 mg/kg i.p., read-out: increase in HP-time (%)): 200%; decrease of motility ([5]; 1.0 mg/kg): +; loss of muscle tone ([5]; 1.0 mg/kg): +; minimal effective dose ([3]; read-out: Pulse frequency Minimum Dose having a significant increasing effect): 3 to 10 mg/kg

Reference: patent publication US4443466A, “4-Benzyl- and 4-benzoyl-substituted imidazole derivatives and use as medicaments” (priority 1980, dated 1984)
